{"source": "patent US20100041756A1", "about": "“METHOD OF MODULATING B CELL FUNCTIONING” (priority 2004, published 2010)", "key": {"[1]": {"test_system": "T cells stimulated with anti-CD3/anti-CD28", "assay": "Cytokine production by stimulated T cells in vitro (ELISA)", "type": "cell-based, mouse", "method": "FIG. 10 is a graphical representation depicting that 3,4-DAA and 3-HAA inhibit B and T cell proliferation in vitro. Purified B and T cells were stimulated for 72 h with anti-CD40 (a), or anti-CD3/anti-CD28 (b) respectively, in the presence of varying doses of 3,4-DAA, or 3-HAA.\nA single cell suspension was prepared from spleen by mincing through a cell strainer, and erythrocytes were lysed using an ammonium chloride solution (Sigma, St Louis, Mo., USA). B cells were positively enriched by using anti-IgM MACS microbeads, and T cells were positively enriched using anti-CD4 MACS microbeads and the MACS system, according to the manufacturer's guidelines (Miltenyi Biotec, Bergisch Gladbach, Germany). Purity was assessed by flow cytometric analysis (B cell>90% CD19+, T cell>90% CD4+). Cells were cultured at 5×10^5 cells/ml in 200 μl complete RPMI, as above, in a flat bottom 96-well plate and cultured for 72 h. B cells were stimulated with anti-CD40 monoclonal antibody (10 μg/ml; BD), and T cells were stimulated with 5 μg/ml plate-bound anti-CD3 (BD), 5 μg/ml soluble anti-CD28 (BD). Tranilast, 3-HAA, or vehicle (DMSO) were incubated at concentrations stated with the cultures. 48 hours after stimulation, 100 μl culture medium was collected, and cells were pulsed with 1 μCi ^3H thymidine per well for 18 h. Cells were then harvested and plates assessed for incorporation. Each assay was performed on a minimum of 3 occasions. Data shown is of one representative experiment, and is expressed as mean+/−SD of triplicate in culture. IFN-γ, IL-10 and IL-5 levels was assessed in the culture medium by ELISA, as above."}, "[2]": {"test_system": "DBA/1 mice immunised with type II collagen in CFA", "assay": "Development of collagen-induced arthritis, treatment from the day of immunisation (Example 4)", "type": "in vivo, mouse", "method": "(§1) Type II collagen was purified from bovine cartilage, as described [Williams, R. O. 2004, Methods Mol. Med. 98:207-216] and solubilized by stirring overnight at 4° C. in acetic acid (0.1M) or Tris buffer (0.05 M Tris, containing 0.2 M NaCl, pH 7.4). Tranilast was synthesised by Angiogen Pharmaceuticals Pty. Ltd. For in vivo studies Tranilast was dissolved at a maximum concentration of 10 mg/ml in 1% sodium bicarbonate by heating for 1 h at 70° C. Upon cooling, an emulsion was formed. For in vitro studies Tranilast was dissolved in dimethyl sulphoxide (DMSO). 3-Hydroxy-anthranilic acid (3-HAA) was purchased from Sigma (Poole, UK) and dissolved in PBS.\n(§2) Male DBA/1 mice (8-12 weeks old) were immunized intradermally at the base of the tail with bovine type II collagen (200 μg) emulsified in complete Freund's adjuvant (CFA; Difco, West Moseley, UK). Arthritis was monitored clinically using the following scoring system: 0=normal, 1=slight swelling and/or erythema, and 2=pronounced oedematous swelling. Each limb was graded, giving a maximum score of 8 per mouse. In addition, paw-swelling was measured using calipers.\nELISA plates (Nunc, Uxbridge, UK) were coated with 2 μg/ml of bovine CII dissolved overnight in Tris Buffer (0.05 M Tris, containing 0.2 M NaCl, pH 7.4) blocked with 2% bovine serum albumin (BSA) and then incubated with serial dilutions of test sera. A reference sample was included on each plate. Bound total IgG, IgG1 or IgG2a was detected by incubation with HRP-conjugated sheep anti-mouse IgG, IgG1 or IgG2a, followed by TMB substrate. Optical density was measured at 450 nm.\nIn order to assess its anti-arthritic potential, Tranilast was injected into DBA/1 mice (200 mg/kg/day) from the day of immunisation with type II collagen in CFA. By day 28, 5 of 7 (71%) vehicle treated mice had developed arthritis of moderate severity (clinical score 2.8±0.6), whilst 1 of 7 (14%) Tranilast-treated mice had developed mild arthritis (clinical score 1)."}, "[3]": {"test_system": "DBA/1 mice with established CIA", "assay": "Treatment of established CIA (Example 4): clinical score, paw-swelling, histology, relapse", "type": "in vivo, mouse", "method": "FIG. 6 is a graphical representation of the treatment of established CIA with 3,4-DAA. DBA/1 mice were immunised with type II collagen in CFA and monitored for development of arthritis. On day 1 of arthritis, mice were injected intraperitoneally with 3,4-DAA on a daily basis. Paw thickness was measured with callipers. The clinical scoring system was as follows: 0=normal, 1=slight swelling and/or erythema, and 2=pronounced oedematous swelling. Each limb was graded, giving a maximum score of 8 per mouse. Histological assessment of arthritis was carried out on haematoxylin and eosin stained sections using a scoring system as follows: 0, normal; 1, minimal synovitis without cartilage/bone erosion; 2, synovitis with some marginal erosion but joint architecture maintained; 3, severe synovitis and erosion with loss of normal joint architecture. There were 14 mice/group (data pooled from two separate experiments). *, P<0.05 (compared to control group).\nFIG. 9 is a graphical representation depicting the relapse of arthritis 4 days after cessation of therapy. Mice with established CIA (n=6) were treated with 3,4-DAA (400 mg/kg/day) from days 1 to 5 of arthritis and clinical severity of arthritis was monitored up to day 12. Arthritis is seen to relapse at around day 9.\nas §1, §2\nHistopathological assessment of arthritis was carried out in a blinded fashion on decalcified haematoxylin and eosin stained sections using a scoring system as follows: 0, normal; 1, minimal synovitis without cartilage/bone erosion; 2, synovitis with some marginal erosion but joint architecture maintained; 3, severe synovitis and erosion with loss of normal joint architecture. This research was approved by the local ethical review process committee and by the Home Office of Great Britain.\nThe ability of Tranilast to treat established CIA was tested. Mice were immunised with type II collagen in CFA. On day 1 of clinical arthritis (the day that arthritis was first observed) mice were randomly assigned to different treatment groups and given Tranilast (100 mg/kg/day, 200 mg/kg/day or 400 mg/kg/day) or vehicle alone over a 10 day period. […]\nIt is clearly of interest to establish what happens when treatment with Tranilast is stopped. […] Treatment was then stopped and mice were monitored for a further 7 days."}, "[4]": {"settings": "100, 200 or 400 mg/kg/day, 10 days (FIG. 6)"}}}
{"smiles": "COc1ccc(/C=C/C(=O)Nc2ccccc2C(=O)O)cc1OC", "note": "[Tranilast, 2-[[3-(3,4-dimethoxyphenyl)-1-oxo-2-propenyl]amino]benzoic acid]", "values": [{"measurement": "IFN-γ production by T-cells", "setting": "[1]; FIG. 10C", "result": "dose-dependently reduced"}, {"measurement": "IL-10 production by T-cells", "setting": "[1]; FIG. 10D", "result": "dose-dependently inhibited"}, {"measurement": "IL-5 production by T-cells", "setting": "[1]; FIG. 10E", "result": "dose-dependently inhibited"}, {"measurement": "anti-collagen IgG1 or IgG2a levels in sera", "setting": "[2]; 200 mg/kg/day from the day of immunisation", "result": "no change"}, {"measurement": "mice that had developed arthritis by day 28", "setting": "[2]; 200 mg/kg/day from the day of immunisation, 1 of 7 mice", "result": 14, "unit": "%"}, {"measurement": "clinical score", "setting": "[2]; day 28, 200 mg/kg/day from the day of immunisation", "result": 1}, {"measurement": "day of relapse (exacerbation) of arthritis after cessation of therapy", "setting": "[3]; 400 mg/kg/day days 1 to 5, monitored up to day 12 (FIG. 9)", "result": 9, "unit": "days"}, {"measurement": "arthritis severity during the treatment period", "setting": "[3]; 400 mg/kg/day, day 1 to day 5 of arthritis (FIG. 9)", "result": "dramatic reduction in arthritis severity"}, {"measurement": "clinical scores", "setting": "[3]; [4]", "result": "dose-dependent reduction"}, {"measurement": "paw-swelling", "setting": "[3]; [4]", "result": "dose-dependent reduction"}, {"measurement": "histological severity of arthritis", "setting": "[3]; day 10 (FIG. 6)", "result": "clear dose-dependent reduction"}]}
